pEC50: −log10 of the molar value.
Test system: HBV
Experiment: HBV replication inhibition assay (BDNA assay) in HepG2.2.15 cells
Type: cell-based
Details: Hepatitis B virus, HepG2.2.15, 144 h, HepG2.2.15 cells, BDNA assay, encapsidated HBV DNA in supernatant at day 6; read-out: HepG2.2.15 EC50 HBV DNA
Description: HBV replication inhibition by the disclosed compounds were determined in cells infected or transfected with HBV or cells with stably integrated HBV, such as HepG2.2.15 cells (Sells et al. 1987). In this example, HepG2.2.15 cells were maintained in cell culture medium containing 10% fetal bovine serum (FBS), Geneticin, L-glutamine, penicillin and streptomycin. HepG2.2.15 cells were seeded in 96-well plates at a density of 40,000 cells/well and were treated with serially diluted compounds at a final DMSO concentration of 0.5% either alone or in combination by adding drugs in a checker box format. Cells were incubated with compounds for three days, after which medium was removed and fresh medium containing compounds was added to cells and incubated for another three days. At day 6, supernatant was removed and treated with DNase at 37° C. for 60 minutes, followed by enzyme inactivation at 75° C. for 15 minutes. Encapsidated HBV DNA was released from the virions and covalently linked HBV polymerase by incubating in lysis buffer (Affymetrix QS0010) containing 2.5 μg proteinase K at 50° C. for 40 minutes. HBV DNA was denatured by addition of 0.2 M NaOH and detected using a branched DNA (BDNA) QuantiGene assay kit according to manufacturer recommendation (Affymetrix). HBV DNA levels were also quantified using qPCR, based on amplification of encapsidated HBV DNA extraction with QuickExtraction Solution (Epicentre Biotechnologies) and amplification of HBV DNA using HBV specific PCR probes that can hybridize to HBV DNA and a fluorescently labeled probe for quantitation. In addition, cell viability of HepG2.2.15 cells incubated with test compounds alone or in combination was determined by using CellTitre-Glo reagent according to the manufacturer protocol (Promega). The mean background signal from wells containing only culture medium was subtracted from all other samples, and percent inhibition at each compound concentration was calculated by normalizing to signals from HepG2.2.15 cells treated with 0.5% DMSO using equation E1.
% inhibition=(DMSOave−Xi)/DMSOave×100% E1
where DMSOave is the mean signal calculated from the wells that were treated with DMSO control (0% inhibition control) and Xi is the signal measured from the individual wells. EC50 values, effective concentrations that achieved 50% inhibitory effect, were determined by non-linear fitting using Graphpad Prism software (San Diego, Calif.) and equation E2.
Y=Ymin+(Ymax−Ymin)/(1+10(Log EC50−X)×HillSlope) E2
where Y represents percent inhibition values and X represents the logarithm of compound concentrations.
Selected disclosed compounds were assayed in the HBV replication assay (BDNA assay), as described above, and a representative group of these active compounds is shown in Table 3.

`COC(=O)NCC1CCC(F)(F)c2c3c(nn2C1)CCN(C(=O)Nc1ccnc(Br)c1F)C3` (stereo not drawn) [Example 54, Methyl ((2-((2-bromo-3-fluoropyridin-4-yl)carbamoyl)-11,11-difluoro-2,3,4,7,8,9,10,11-octahydro-1H-pyrido[4′,3′:3,4]pyrazolo[1,5-a]azepin-8-yl)methyl)-carbamate] gave a pEC50 of 8.10.
In the case of `C#CC1(O)CCC(F)(F)c2c3c(nn2C1)CCN(C(=O)Nc1ccc(F)c(C#N)c1)C3` (stereo not drawn) [Example 58, N-(3-Cyano-4-fluorophenyl)-8-ethynyl-11,11-di fluoro-8-hydroxy-3,4,8,9,10,11-hexahydro-1H-pyrido[4′,3′:3,4]pyrazolo[1,5-a]azepine-2(7H)-carboxamide], the pEC50 was 7.43.
`C[C@@H]1Cc2nn3c(c2CN1C(=O)Nc1ccc(F)c(C#N)c1)C(F)(F)CC[C@@H](O)C3` [Example 67, (3R,8R)-N-(3-cyano-4-fluorophenyl)-11,11-difluoro-8-hydroxy-3-methyl-3,4,8,9,10,11-hexahydro-1H-pyrido[4′,3′:3,4]pyrazolo[1,5-a]azepine-2(7H)-carboxamide] showed a pEC50 of 8.40.
`C[C@@H]1Cc2nn3c(c2CN1C(=O)Nc1ccnc(Br)c1F)C(F)(F)CC[C@@H](O)C3` [Example 68, (3R,8R)-N-(2-Bromo-3-fluoropyridin-4-yl)-11,11-di fluoro-8-hydroxy-3-methyl-3,4,8,9,10,11-hexahydro-1H-pyrido[4′,3′:3,4]pyrazolo[1,5-a]azepine-2(7H)-carboxamide] was tested, and the pEC50 was 7.68.
In the case of `C[C@@H]1Cc2nn3c(c2CN1C(=O)Nc1ccc(F)c(C(F)(F)F)c1)C(F)(F)CC[C@@H](O)C3` [Example 69, (3R,8R)-11,11-Difluoro-N-(4-fluoro-3-(trifluoromethyl)phenyl)-8-hydroxy-3-methyl-3,4,8,9,10,11-hexahydro-1H-pyrido[4′,3′:3,4]pyrazolo[1,5-a]azepine-2(7H)-carboxamide], the pEC50 was 8.15.
With `C[C@@H]1Cc2nn3c(c2CN1C(=O)Nc1ccnc(C(F)F)c1F)C(F)(F)CC[C@@H](O)C3` [Example 70, (3R,8R)-N-(2-(Difluoromethyl)-3-fluoropyridin-4-yl)-11,11-difluoro-8-hydroxy-3-methyl-3,4,8,9,10,11-hexahydro-1H-pyrido[4′,3′:3,4]pyrazolo[1,5-a]azepine-2(7H)-carboxamide] the pEC50 was 7.51.
In the case of `C[C@@H]1Cc2nn3c(c2CN1C(=O)Nc1ccc(F)c(C#N)c1)C(F)(F)CC[C@H](O)C3` [Example 71, (3R,8 S)-N-(3-Cyano-4-fluorophenyl)-11,11-difluoro-8-hydroxy-3-methyl-3,4,8,9,10,11-hexahydro-1H-pyrido[4′,3′:3,4]pyrazolo[1,5-a]azepine-2(7H)-carboxamide], the pEC50 was 8.70.
For `C[C@@H]1Cc2nn3c(c2CN1C(=O)Nc1ccnc(Br)c1F)C(F)(F)CC[C@H](O)C3` [Example 72, (3R,8S)-N-(2-Bromo-3-fluoropyridin-4-yl)-11,11-difluoro-8-hydroxy-3-methyl-3,4,8,9,10,11-hexahydro-1H-pyrido[4′,3′:3,4]pyrazolo[1,5-a]azepine-2(7H)-carboxamide], the pEC50 was 8.05.
In the case of `C[C@@H]1Cc2nn3c(c2CN1C(=O)Nc1ccc(F)c(C(F)(F)F)c1)C(F)(F)CC[C@H](O)C3` [Example 73, (3R,8S)-11,11-Difluoro-N-(4-fluoro-3-(trifluoromethyl)phenyl)-8-hydroxy-3-methyl-3,4,8,9,10,11-hexahydro-1H-pyrido[4′,3′:3,4]pyrazolo[1,5-a]azepine-2(7H)-carboxamide], the pEC50 was 8.70.
With `C[C@@H]1Cc2nn3c(c2CN1C(=O)Nc1ccnc(C(F)F)c1F)C(F)(F)CC[C@H](O)C3` [Example 74, (3R,8S)-N-(2-(Difluoromethyl)-3-fluoropyridin-4-yl)-11,11-difluoro-8-hydroxy-3-methyl-3,4,8,9,10,11-hexahydro-1H-pyrido[4′,3′:3,4]pyrazolo[1,5-a]azepine-2(7H)-carboxamide] the pEC50 was 7.96.
`C[C@@H]1Cc2nn3c(c2CN1C(=O)Nc1ccc(F)c(C#N)c1)C(F)(F)C[C@H](CO)CC3` [Example 131] gave a pEC50 of 8.52.
For `C[C@@H]1Cc2nn3c(c2CN1C(=O)Nc1ccc(F)c(C#N)c1)C(F)(F)C(O)CCC3` (stereo partly drawn) [Example 143, (3R)-N-(3-Cyano-4-fluorophenyl)-11,11-difluoro-10-hydroxy-3-methyl-1,3,4,7,8,9,10,11-octahydro-2H-pyrido[4′,3′:3,4]pyrazolo[1,5-a]azepine-2-carboxamide], the pEC50 was 6.81.

From patent US20220235051A1, “DI-FLUORO AZEPANES AS HBV CAPSID ASSEMBLY MODULATORS” (priority 2019, published 2022)
